In patent US20090062397A1, “COMPOUNDS AND METHODS FOR ENHANCING SOLUBILITY OF FLORFENICOL AND STRUCTURALLY-RELATED ANTIBIOTICS USING CYCLODEXTRINS” (Schering-Plough Animal Health Corporation, priority 2007, published 2009):
≈ marks a conversion by molar mass, not a printed value.

Tests used:
Format in all cases: physicochemical
[1] = Phase solubility study of FFC in HP-Beta-CD (Higuchi Connors)
Method: (§1) Phase solubility analysis is one of the methods used to determine a drug:CD binding constant and its consequences on the drug solubility have been extensively described in the literature by Higuchi and Connors. In such experiments, the solubility of a substance (S) is monitored with increases in the concentration of a ligand (L) (cyclodextrin in this case). The experiments are conducted in a series of tubes or vials containing the same volume of ligand solutions with increasing concentrations, except that one tube contains the solvent only. To each tube is added a known amount of the substance or drug, and the samples are equilibrated at constant temperature. The solution phase is then analyzed for the total substance concentration. If a soluble complex forms, the substance concentration should vary with increasing ligand concentration. The solubility behavior can be determined using a phase diagram by plotting the total substance concentration versus the total ligand concentration.
(§2) Florfenicol solubility in mixed solvents, such as water/PEG-300, and florfenicol complexes with beta cyclodextrin were evaluated by solubility studies using High Performance Liquid Chromatography (HPLC). The HPLC system consisted of a Waters Alliance Separation Module equipped with a Waters 2996 Photodiode Array Detector interfaced with Millennium Chromatography manager data software. The HPLC mobile phase consisted of acetonitrile and a 0.1% phosphoric acid aqueous solution (30:70 v/v). A Phenomenx®, Luna C8 5 micron column was used. The flow rate was 1.0 mL/min and the detection wavelength was 260 nm. Binding constants were calculated using the Higuchi Connors method from solubility study plots. The solubility of florfenicol in aqueous CD/PEG-300 systems was also investigated with the same technique.
(§3) In a first set of experiments, phase solubility studies were conducted for FFC in natural and modified cyclodextrins. The results of these studies are reported in Tables I, II, III, IV and V below, and the phase solubility diagrams are reported in FIGS. 5, 6, 7 and 8.

[2] = Phase solubility study of FFC in Gamma-CD (Higuchi Connors)
Method: as §1, §2, §3

[3] = Phase solubility study of FFC in Beta-CD (Higuchi Connors)
Method: as §1, §2, §3

[4] = Phase solubility study of FFC in Captisol (Higuchi Connors)
Method: as §1, §2, §3

[5] = Experimental water solubility of FFC (HPLC solubility study); settings: thermodynamic from solid
Method: as §1, §2, §3

[6] = Solubility of FFC in aqueous Beta-CD/PEG-300 systems; settings: for solubility: aqueous beta-cyclodextrin/PEG-300 system, aqueous with cosolvent or surfactant or cyclodextrin, thermodynamic from solid
Method: as §2
In a second set of experiments, the effects of different percentages of PEG-300 when used as a co-solvent were investigated in a FFC-cyclodextrin complex system.
The results obtained for the FEC-CD complex in the presence of different percentages of PEG-300 and different molar concentrations of cyclodextrin are reported in Tables VI and VII below.

SMILES: CS(=O)(=O)c1ccc([C@@H](O)[C@@H](CF)NC(=O)C(Cl)Cl)cc1 (relative stereo) [FFC, [R-(R*,S*)]2,2-Dichloro-N-[1-(fluoromethyl)-2-hydroxy-2-[4-(methylsulfonyl)phenyl]-ethyl]acetamide]
- Average FFC ([1]; HP-Beta-CD 0.006 M): 3.72 mg/mL
- Average FFC ([1]; HP-Beta-CD 0.012 M): 4.88 mg/mL
- Average FFC ([1]; HP-Beta-CD 0.02 M): 7.00 mg/mL
- Average FFC ([1]; HP-Beta-CD 0.05 M): 9.76 mg/mL
- Average FFC ([1]; HP-Beta-CD 0.09 M): 17.43 mg/mL
- calculated binding constant for FFC:HP-CD complex ([1]; HP-Beta-CD, Higuchi Connors method): 816.652 M⁻¹
- Average FFC ([2]; Gamma-CD 0.007 M): 2.51 mg/mL
- Average FFC ([2]; Gamma-CD 0.014 M): 3.70 mg/mL
- Average FFC ([2]; Gamma-CD 0.03 M): 5.24 mg/mL
- Average FFC ([2]; Gamma-CD 0.06 M): 8.20 mg/mL
- Average FFC ([2]; Gamma-CD 0.11 M): 10.77 mg/mL
- calculated binding constant for FFC:Gamma-CD Complex ([2]; Gamma-CD, Higuchi Connors method): 612.43 M⁻¹
- Average FFC ([3]; Beta-CD 0.006 M): 4.03 mg/mL
- FFC ([3]; Beta-CD 0.006 M): 10.45 µM
- Average FFC ([3]; Beta-CD 0.01 M): 5.91 mg/mL
- FFC ([3]; Beta-CD 0.01 M): 15.3 µM
- Average FFC ([3]; Beta-CD 0.02 M): 9.79 mg/mL
- FFC ([3]; Beta-CD 0.02 M): 25.4 µM
- Average FFC ([3]; Beta-CD 0.05 M): 15.59 mg/mL
- FFC ([3]; Beta-CD 0.05 M): 40.4 µM
- calculated binding constant for FFC:CD complex ([3]; Beta-CD, Higuchi Connors method): 1429.57 M⁻¹
- Average FFC ([4]; Captisol 0.006 M): 4.92 mg/mL
- FFC ([4]; Captisol 0.006 M): 9.28 µM
- Average FFC ([4]; Captisol 0.013 M): 5.11 mg/mL
- FFC ([4]; Captisol 0.013 M): 13.2 µM
- Average FFC ([4]; Captisol 0.03 M): 7.98 mg/mL
- Average FFC ([4]; Captisol 0.05 M): 13.17 mg/mL
- FFC ([4]; Captisol 0.05 M): 34.1 µM
- Average FFC ([4]; Captisol 0.10 M): 19.18 mg/mL
- FFC ([4]; Captisol 0.10 M): 49.7 µM
- calculated binding constant for FFC:Captisol complex ([4]; Captisol, Higuchi Connors method): 1020.92 M⁻¹
- solubility ([5]; Standard 1): 1910 µg/mL (≈ 5.33 mM)
- solubility ([5]; Standard 2): 1900 µg/mL (≈ 5.3 mM)
- solubility ([5]; Standard 3): 1950 µg/mL (≈ 5.44 mM)
- solubility of FFC (change) ([6]; PEG-300 used as co-solvent for a FFC:cyclodextrin complex): greatly increased
- solubility ([6]; 10 mM beta/3% PEG-300): 7510 µg/mL (≈ 21 mM)
- solubility ([6]; 10 mM beta/10% PEG-300): 6310 µg/mL (≈ 17.6 mM)
- solubility ([6]; 10 mM beta/50% PEG-300): 12300 µg/mL (≈ 34.3 mM)
- solubility ([6]; 50 mM beta/20% PEG-300): 10600 µg/mL (≈ 29.5 mM)
- solubility ([6]; 50 mM beta/30% PEG-300): 14400 µg/mL (≈ 40.1 mM)
- solubility ([6]; 50 mM beta/50% PEG-300): 15500 µg/mL (≈ 43.3 mM)
